Source: paper PMC5626944 (Frontiers in Pharmacology, 2017)
Like-named read-outs stand apart in the source and are kept apart here.

Tests used:
[1] = test system: Norepinephrine Transporter; assay: NovaScreen competition binding; settings: 1 µM
[2] = test system: T1, Adrenergic, Alpha 2A (h); assay: NovaScreen competition binding; design: species or system human; settings: 1 µM
T1 construct: PerkinElmer – Caliper Life Sciences (NovaScreen service)

[3] = molecular target: α4β2* nAChRs (Mus musculus, UniProt O70174+Q9ERK7); assay: biochemical; assay type: biochemical; settings: for Emax: relative to nicotine; for EC50: read-out: Neurotransmitter release EC50
α4β2* nAChRs, sequence (O70174 31-629): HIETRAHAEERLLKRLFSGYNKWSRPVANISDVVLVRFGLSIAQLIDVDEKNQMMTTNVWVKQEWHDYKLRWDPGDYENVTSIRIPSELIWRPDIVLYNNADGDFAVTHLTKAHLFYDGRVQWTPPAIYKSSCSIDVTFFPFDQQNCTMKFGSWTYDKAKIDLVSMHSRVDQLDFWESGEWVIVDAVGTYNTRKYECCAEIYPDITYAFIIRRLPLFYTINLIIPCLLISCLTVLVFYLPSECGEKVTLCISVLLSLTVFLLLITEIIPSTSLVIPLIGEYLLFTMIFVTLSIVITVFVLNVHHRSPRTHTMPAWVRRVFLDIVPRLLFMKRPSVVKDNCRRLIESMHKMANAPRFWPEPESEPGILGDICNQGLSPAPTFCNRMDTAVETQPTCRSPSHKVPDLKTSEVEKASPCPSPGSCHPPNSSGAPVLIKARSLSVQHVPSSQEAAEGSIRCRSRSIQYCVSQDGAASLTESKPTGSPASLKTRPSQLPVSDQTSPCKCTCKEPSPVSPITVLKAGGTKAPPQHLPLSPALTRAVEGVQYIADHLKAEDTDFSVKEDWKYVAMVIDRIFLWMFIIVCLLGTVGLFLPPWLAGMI
α4β2* nAChRs, sequence (Q9ERK7 26-501): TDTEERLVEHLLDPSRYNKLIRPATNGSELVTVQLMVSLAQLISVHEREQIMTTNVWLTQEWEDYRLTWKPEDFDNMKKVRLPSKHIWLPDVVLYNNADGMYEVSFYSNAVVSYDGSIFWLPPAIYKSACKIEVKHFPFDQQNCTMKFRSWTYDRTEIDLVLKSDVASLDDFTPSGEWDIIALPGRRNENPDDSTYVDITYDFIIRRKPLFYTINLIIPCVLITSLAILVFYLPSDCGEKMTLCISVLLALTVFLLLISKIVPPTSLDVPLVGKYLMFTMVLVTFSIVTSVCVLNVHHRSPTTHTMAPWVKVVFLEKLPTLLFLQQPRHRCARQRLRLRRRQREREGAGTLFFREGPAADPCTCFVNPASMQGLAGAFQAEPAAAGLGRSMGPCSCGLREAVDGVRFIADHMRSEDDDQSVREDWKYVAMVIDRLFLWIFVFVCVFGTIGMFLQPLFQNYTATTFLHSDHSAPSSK
Protocol: Regions of interest were dissected from fresh mouse brains and homogenized in ice-cold isotonic sucrose (0.32 M), buffered with HEPES (5 mM, pH 7.5). The suspension was centrifuged at 12,000 × g for 20 min.
Superfusion proceeded at 0.7 mL/min for 10 min before stimulation with agonist for 20 s. Selected aliquots were perfused with α-CtxMII (50 nM) for 3 min immediately before stimulation. […] Fractions (∼0.1 mL) were collected into 96-well plates at 10 s intervals for 4 min (starting ∼1 min before stimulation).

[4] = test system: Glutamate, Kainate Site (Ionotropic); assay: NovaScreen competition binding; settings: 1 µM
[5] = test system: Serotonin, 5HT2C; assay: NovaScreen competition binding; settings: 1 µM
[6] = test system: GABA, Chloride, TBOB Site; assay: NovaScreen competition binding; settings: 1 µM
[7] = test system: Muscarinic, M2 (h); assay: NovaScreen competition binding; design: species or system human; settings: 1 µM
[8] = test system: T2, Adenosine, A2A (h); assay: NovaScreen competition binding; design: species or system human; settings: 1 µM
T2 construct: PerkinElmer – Caliper Life Sciences (NovaScreen service)

[9] = test system: Muscarinic, M4 (h); assay: NovaScreen competition binding; design: species or system human; settings: 1 µM
[10] = test system: Dopamine, D4.4 (h); assay: NovaScreen competition binding; design: species or system human; settings: 1 µM
[11] = test system: Serotonin, 5HT1D; assay: NovaScreen competition binding; settings: 1 µM
[12] = molecular target: T3, α3β4* nAChRs (Mus musculus, UniProt Q8R493+Q8R4G9); assay: [125I]epibatidine binding, IPN membranes from β2KO mice
T3 construct: from tissue
T3 sequence (Q8R4G9 26-499): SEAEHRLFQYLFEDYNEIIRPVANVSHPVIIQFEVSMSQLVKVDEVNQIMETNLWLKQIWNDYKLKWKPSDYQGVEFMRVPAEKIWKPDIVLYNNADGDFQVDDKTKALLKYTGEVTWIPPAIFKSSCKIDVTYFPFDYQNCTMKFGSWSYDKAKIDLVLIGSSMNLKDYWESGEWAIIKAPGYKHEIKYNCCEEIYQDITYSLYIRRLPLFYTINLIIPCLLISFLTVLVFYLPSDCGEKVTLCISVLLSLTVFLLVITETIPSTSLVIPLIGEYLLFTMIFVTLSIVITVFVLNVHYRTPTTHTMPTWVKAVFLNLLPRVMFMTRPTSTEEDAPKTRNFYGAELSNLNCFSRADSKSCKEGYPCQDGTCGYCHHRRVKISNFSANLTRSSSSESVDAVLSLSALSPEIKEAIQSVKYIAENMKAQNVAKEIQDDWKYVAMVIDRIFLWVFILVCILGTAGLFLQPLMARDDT
T3 sequence (Q8R493 21-495): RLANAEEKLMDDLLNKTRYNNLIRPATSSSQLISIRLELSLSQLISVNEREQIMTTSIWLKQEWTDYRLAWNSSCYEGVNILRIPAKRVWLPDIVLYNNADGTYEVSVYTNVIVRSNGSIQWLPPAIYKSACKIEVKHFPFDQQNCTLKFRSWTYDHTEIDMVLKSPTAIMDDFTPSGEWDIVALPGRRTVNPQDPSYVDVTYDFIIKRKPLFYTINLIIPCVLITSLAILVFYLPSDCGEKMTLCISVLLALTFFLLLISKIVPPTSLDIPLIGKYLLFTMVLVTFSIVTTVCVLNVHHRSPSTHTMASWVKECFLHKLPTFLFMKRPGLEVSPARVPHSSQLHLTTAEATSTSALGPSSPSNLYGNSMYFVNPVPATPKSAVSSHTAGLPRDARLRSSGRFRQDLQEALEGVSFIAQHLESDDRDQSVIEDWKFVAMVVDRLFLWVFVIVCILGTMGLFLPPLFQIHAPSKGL
Protocol: The methods used for preparing brain membranes in hypotonic buffer have been described previously ([Marks et al., 1998], [2007]). Brain membrane preparations were stored as pellets under buffer at -70°C or used immediately. We followed previously published methods for [^125I]epibatidine binding and analysis ([Grady et al., 2010]).

[13] = test system: Human FMO3; assay: Turnover by human flavin-containing monooxygenase 3; assay type: in vitro ADME; settings: 100 pmol/mL enzyme, 37 °C
Protocol: S2 Table. In vitro metabolism of TC299423, compared w ith varenicline.
Human Rat microsomes Turnover by human cytochrome P450 isoforms […]
The assay mixtures (final incubation volume of 125 μL) in 0.255 M phosphate buffer with 0.575% (w/v) KCl (pH 7.4) contained PiB (1.0 μM), […] a recombinantly expressed cytochrome P450 enzyme preparation (1A2, 2C9, 2C19, 2D6, 3A4, and FMO3) at 100 pmol/mL. After a 10 min preincubation at 37 °C, the reaction was initiated by addition of 2.0 mM NADPH and incubated for 60 min. The reactions were terminated by the addition of two volumes of DMSO. Samples were subsequently centrifuged at 4,000 rpm for 10 min. From the resulting supernatant, 10 μ L was analyzed by liquid chromatography/tandem mass spectrometry (LC-MS/MS). Control experiments were performed by substituting the active enzyme preparation by cell preparations containing no recombinant human CYP. a, Data for clearance are given as μL /min/mg protein. […]
c, Data for cytochrome P450 turnover and for human flavin- containing monooxygenase 3 (FMO3) are given as percent decline over 60 min.

[14] = test system: Dopamine, D2s (h); assay: NovaScreen competition binding; design: species or system human; settings: 1 µM
[15] = molecular target: T4, α4-GFPβ2DM nAChRs (Mus musculus, UniProt O70174+Q9ERK7, L349M/R365A/R366A/R368A); assay: Whole-cell patch-clamp recordings in transfected neuro-2a cells; assay type: cell-based; settings: α4β2 single component, transfected in Neuro-2a cells
T4 construct: expressed in transfected cells; host or cells: mouse neuroblastoma neuro-2a (ATCC CCL-131)
T4 sequence (O70174 31-629): as the sequence (O70174 31-629) above
T4 sequence (Q9ERK7 26-501 L349M/R365A/R366A/R368A): as the sequence (Q9ERK7 26-501) above, with L324M, R340A, R341A, R343A counted along it
Protocol: (§1) Cells were transfected with 500 ng of: α4-GFP and β2DM or α6-GFP, β2DM, and β3 nAChR subunits.
(§2) For the patch-clamp experiments, we used mouse neuro-2a cells. […] Transfected cells displaying eGFP fluorescence were identified for patching using an inverted epifluorescence microscope. […] The resistance of the patch pipettes was 2–4 MΩ. The extracellular solution contained (in mM): 140 NaCl, 5 KCl, 2 CaCl2, 1 MgCl2, 10 HEPES, and 10 glucose (320 mOsm, pH set to 7.3 with Tris-base). […] The data were sampled at 10 kHz and low-pass filtered at 2 kHz prior to digitization. All experiments were performed at 24°C and the recording chamber was continually perfused with extracellular solution. To avoid receptor desensitization by repetitive agonist application, agonists were applied at intervals ≥3 min. An Octaflow II superfusion system (ALA Scientific Instruments) was used to apply the agonist for concentration-response studies. Applications were 500 ms at 6 psi. […] Following the collection of the full concentration range an additional test pulse was repeated to assess accumulated desensitization.
(§3) Data were fit to a single Hill term using Origin 10 software. Data are expressed as mean ± SEM.

[16] = molecular target: T5, α6-GFPβ2DMβ3 nAChRs (Mus musculus, UniProt Q9ERK7+Q9R0W9, L349M/R365A/R366A/R368A); assay: as above; assay type: cell-based
T5 construct: expressed in transfected cells; host or cells: mouse neuroblastoma neuro-2a (ATCC CCL-131)
T5 sequence (Q8BMN3 31-464, stated change not applied): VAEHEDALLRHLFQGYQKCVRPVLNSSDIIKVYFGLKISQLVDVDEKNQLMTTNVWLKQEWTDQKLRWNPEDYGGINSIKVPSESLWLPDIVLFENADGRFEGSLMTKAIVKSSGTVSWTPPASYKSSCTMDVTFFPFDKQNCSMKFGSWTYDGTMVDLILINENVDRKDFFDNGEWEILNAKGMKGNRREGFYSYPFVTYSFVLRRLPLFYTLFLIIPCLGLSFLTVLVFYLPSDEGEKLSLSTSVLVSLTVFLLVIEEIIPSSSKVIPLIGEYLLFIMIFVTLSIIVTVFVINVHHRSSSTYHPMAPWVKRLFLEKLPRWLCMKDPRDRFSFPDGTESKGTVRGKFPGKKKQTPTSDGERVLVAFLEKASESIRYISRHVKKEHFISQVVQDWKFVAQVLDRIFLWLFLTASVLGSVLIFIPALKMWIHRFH
T5 sequence (Q9R0W9 31-494): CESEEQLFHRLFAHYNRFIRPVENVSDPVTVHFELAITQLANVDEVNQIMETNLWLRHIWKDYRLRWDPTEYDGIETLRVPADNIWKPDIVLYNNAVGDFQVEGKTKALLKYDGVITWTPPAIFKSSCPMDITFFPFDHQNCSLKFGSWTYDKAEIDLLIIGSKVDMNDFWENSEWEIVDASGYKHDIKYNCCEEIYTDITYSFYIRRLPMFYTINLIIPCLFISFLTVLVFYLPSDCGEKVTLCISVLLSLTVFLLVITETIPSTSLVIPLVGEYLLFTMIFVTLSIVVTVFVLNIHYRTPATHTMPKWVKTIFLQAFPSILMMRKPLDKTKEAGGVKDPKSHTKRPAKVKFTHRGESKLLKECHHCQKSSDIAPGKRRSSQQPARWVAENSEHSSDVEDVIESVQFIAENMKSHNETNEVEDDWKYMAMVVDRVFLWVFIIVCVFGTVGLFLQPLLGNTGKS
T5 sequence (Q9ERK7 26-501 L349M/R365A/R366A/R368A): as the sequence (Q9ERK7 26-501) above, with L324M, R340A, R341A, R343A counted along it
Protocol: as §1, §2, §3

[17] = test system: Nitric Oxide, NOS (Neuronal-Binding); assay: NovaScreen competition binding; settings: 1 µM
[18] = test system: T6, Kinase, Protein, PKCa (h); assay: NovaScreen enzyme assay; assay type: biochemical, human; settings: 1 µM
T6 construct: PerkinElmer – Caliper Life Sciences (NovaScreen service)

[19] = test system: T7, Thromboxane A2 (h) [SQ 29,548]; assay: NovaScreen competition binding; design: species or system human; settings: 1 µM
T7 construct: PerkinElmer – Caliper Life Sciences (NovaScreen service)

With `C1=C(/c2cncnc2)CCCNCC/1` [TC299423, (E)-5-(pyrimidin-5-yl)-1,2,3,4,7,8-hexahydroazocine] the Hit [1] was “FALSE”, the Inhibition ([1]; [3H]Nisoxetine) was 23.72% and the Hit [2] was “FALSE”. For the same compound, the Inhibition ([2]; [3H]MK-912) was 6.75%, the Emax ([3]; read-out: Neurotransmitter release % Efficacy, WT striatal synaptosomes, single component) was 76 ± 5% and the Emax ([3]; read-out: Neurotransmitter release % Efficacy, α5KO striatal synaptosomes) was 112 ± 9%. For the same compound, the EC50 ([3]; WT striatal synaptosomes, single component) was 130 nM, the EC50 ([3]; α5KO striatal synaptosomes) was 600 nM and the Hit [4] was “FALSE”. For the same compound, the Inhibition ([4]; [3H]Kainic acid) was -6.93%, the Hit [5] was “FALSE” and the Inhibition ([5]; [3H]Mesulergine) was -2.21%. For the same compound, the Hit [6] was “FALSE”, the Inhibition ([6]; [3H]TBOB) was 6.83% and the Hit [7] was “FALSE”. For the same compound, the Inhibition ([7]; [3H]Scopolamine, N-Methyl) was -3.18%, the Hit [8] was “FALSE” and the Inhibition ([8]; [3H]CGS 21680) was 1.51%. The Hit [9] was “FALSE”, the Inhibition ([9]; [3H]Scopolamine, N-Methyl) was -6.69% and the Hit [10] was “FALSE”. The Inhibition ([10]; [3H]-YM-09151-2) was -2.44%, the Hit [11] was “FALSE” and the Inhibition ([11]; [3H]5-CT) was 9.99%. The Ki [12] was 18 ± 0.7 nM, the “Turnover by Human FMO3” value [13] was 17 percent decline over 60 min and the Hit [14] was “FALSE”. The Inhibition ([14]; [3H]-Raclopride) was -21.17%, the EC50 [15] was 100 ± 20 nM and the EC50 ([16]; range over patch-clamp recordings and [3H]-dopamine release assays, read-out: EC50 for α6β2* nAChRs) was 30 to 60 nM. The EC50 ([16]; α6β2β3 transfected in Neuro-2a cells, read-out: Patch clamp EC50) was 40 ± 10 nM, the Hit [17] was “FALSE” and the Inhibition ([17]; [3H]NOARG) was -10.86%. For the same compound, the Hit [18] was “FALSE”, the Inhibition ([18]; substrate Fluorescein-labeled peptide) was -1.00% and the Hit [19] was “FALSE”. It also gave an Inhibition ([19]; 3H SQ 29,548) of 3.14%.
